The results in this text go back to patent US20100069384A1, “5-ALKYLOXY-INDOLIN-2-ONE DERIVATIVES, PREPARATION THEREOF AND APPLICATION THEREOF IN THERAPY” (SANOFI-AVENTIS, priority 2006, published 2010).

For series [1], the target named is T1, human recombinant V2 vasopressin receptors (Homo sapiens, UniProt P30518).
T1 construct: expressed in transfected cells; host or cells: CHO
Description: in vitro binding test, displacement of [H3]-AVP from V2 vasopressin receptors. The conditions noted are these: CHO membranes, 3.5 nM [H3]-AVP, 45 minutes at 25° C. The protocol:
The affinity of the compounds of the invention for the V2 vasopressin receptors was measured in in vitro binding tests, as described in J. Pharmacol. Exp. Ther., (2002), 300: pp. 1122-1130.
Plasma membranes (about 20 μg/ml) obtained from CHO tissue or cell line expressing human recombinant V2 vasopressin receptors, are incubated for 45 minutes at 25° C. in 200 μL of TRIS-HCl buffer (50 mM; pH 8.2) containing 2 mM of MgCl2, 1 mM of EDTA, 0.1% of BSA, 1/500 protease inhibitor cocktail (Sigma #P2714) and 3.5 nM of [H3]-AVP. The reaction is stopped by filtration and washing on GF/B filters. Nonspecific binding is determined in the presence of 1 μM of AVP. The compounds of the invention, dissolved beforehand to a concentration of 10^−2 M in DMSO, are tested in a dilution series.
For each concentration the results are expressed as percentage inhibition of specific binding. An IC50 (concentration of product inhibiting 50% of specific binding) is determined for each of the products using the in-house software Biost@t-SPEED v1.3 which employs the 4-parameter logistic model of Ratkovsky and Reedy (1986). Adjustment is obtained by nonlinear regression using Marquardt's algorithm of the SAS v8.2 software running under UNIX.

The target in a further series is T2, human oxytocin receptors (Homo sapiens, UniProt P30559).
T2 sequence (P30559 1-389): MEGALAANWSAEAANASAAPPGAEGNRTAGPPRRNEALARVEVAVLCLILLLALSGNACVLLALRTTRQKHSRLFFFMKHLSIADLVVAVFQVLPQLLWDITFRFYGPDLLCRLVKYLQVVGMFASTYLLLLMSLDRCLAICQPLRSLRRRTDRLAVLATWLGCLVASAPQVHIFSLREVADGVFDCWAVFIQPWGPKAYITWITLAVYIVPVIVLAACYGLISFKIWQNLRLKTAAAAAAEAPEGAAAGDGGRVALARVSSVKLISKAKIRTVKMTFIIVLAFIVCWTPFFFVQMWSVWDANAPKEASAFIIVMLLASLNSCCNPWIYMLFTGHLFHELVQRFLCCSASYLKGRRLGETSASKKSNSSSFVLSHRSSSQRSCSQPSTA
Description: in vitro binding test, displacement of a radioiodated oxytocin analogue from oxytocin receptors. As to conditions: for IC50: membrane preparation of human oxytocin receptors; for IC50 OXT/IC50 V2: selectivity ratio versus V2. The protocol:
(§1) The affinity of the compounds of the invention for the Via and V1b vasopressin receptors and the affinity of the compounds of the invention for the oxytocin (OXT) receptors were also tested.
The affinity of the compounds according to the invention for the OXT receptors was determined in an in vitro binding test using the method described by J. Elands et al. in Eur. J. Pharmacol. 1987, 147, 197-207. This method comprises in vitro investigation of the displacement of a radioiodated analogue of oxytocin from the oxytocin receptors in a membrane preparation of human oxytocin receptors.

The target of the next series is V1a receptors (Homo sapiens, UniProt P37288). The series is described as follows: affinity for V1a receptors (method of Thibonnier et al.). It is filed as binding. The conditions noted are these: for IC50 V1a/IC50 V2: selectivity ratio versus V2. Here is the method: as §1
(§2) The affinity of the compounds according to the invention for human Via receptors was determined according to the method described by M. Thibonnier et al. in J. Biol. Chem. 1994, 269, 3304-3310. The affinity of the compounds according to the invention for the V1b receptors was determined according to the method described by T. Sugimoto et al. in J. Biol. Chem. 1994, 269, 27088-27092.

In a further series the target is T3, V1b receptors (Homo sapiens, UniProt P47901).
T3 sequence (P47901 1-424): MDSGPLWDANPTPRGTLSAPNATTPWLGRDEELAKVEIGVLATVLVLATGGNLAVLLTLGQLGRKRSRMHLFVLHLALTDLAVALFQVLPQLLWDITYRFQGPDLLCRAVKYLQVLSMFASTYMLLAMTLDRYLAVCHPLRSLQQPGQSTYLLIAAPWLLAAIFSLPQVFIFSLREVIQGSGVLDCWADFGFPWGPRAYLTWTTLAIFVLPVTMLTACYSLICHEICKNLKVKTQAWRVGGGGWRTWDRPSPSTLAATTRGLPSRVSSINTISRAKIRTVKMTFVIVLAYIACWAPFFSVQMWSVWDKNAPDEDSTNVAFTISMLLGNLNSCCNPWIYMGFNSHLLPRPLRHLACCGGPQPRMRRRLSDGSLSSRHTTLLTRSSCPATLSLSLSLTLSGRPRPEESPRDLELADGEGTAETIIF
Description: affinity for V1b receptors (method of Sugimoto et al.). As to conditions: for IC50 V1b/IC50 V2: selectivity ratio versus V2. It is filed as binding. Here is the method:
as §1, §2

SMILES strings stand for the structures.

T1 sequence (P30518 whole entry): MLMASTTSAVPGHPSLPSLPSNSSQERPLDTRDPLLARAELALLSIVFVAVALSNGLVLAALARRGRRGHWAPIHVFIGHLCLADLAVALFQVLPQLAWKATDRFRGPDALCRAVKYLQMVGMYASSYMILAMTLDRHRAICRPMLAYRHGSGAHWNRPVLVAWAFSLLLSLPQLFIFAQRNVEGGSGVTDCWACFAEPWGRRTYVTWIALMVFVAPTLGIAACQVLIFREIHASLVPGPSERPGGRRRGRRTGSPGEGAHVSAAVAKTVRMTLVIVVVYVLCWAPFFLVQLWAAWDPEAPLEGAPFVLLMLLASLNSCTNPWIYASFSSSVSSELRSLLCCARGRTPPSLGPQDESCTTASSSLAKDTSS
Sequence of V1a receptors (P37288 whole entry): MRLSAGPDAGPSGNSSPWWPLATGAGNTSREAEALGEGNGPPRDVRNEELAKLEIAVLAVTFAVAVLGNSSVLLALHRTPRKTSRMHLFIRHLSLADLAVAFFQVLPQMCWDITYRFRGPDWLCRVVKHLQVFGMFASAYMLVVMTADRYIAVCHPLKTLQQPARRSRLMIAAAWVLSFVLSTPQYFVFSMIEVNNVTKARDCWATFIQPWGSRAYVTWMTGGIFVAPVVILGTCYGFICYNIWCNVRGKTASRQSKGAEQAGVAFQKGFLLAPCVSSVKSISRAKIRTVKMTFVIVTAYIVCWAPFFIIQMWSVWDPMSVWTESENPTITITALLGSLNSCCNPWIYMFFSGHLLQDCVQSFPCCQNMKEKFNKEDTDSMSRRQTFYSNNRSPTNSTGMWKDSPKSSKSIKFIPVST

`CCOc1ccc2c(c1)C(C)(c1cc(C(=O)NCCN3CCOCC3)ccc1Cl)C(=O)N2S(=O)(=O)c1ccc(C(=O)NC(C)(C)C)cc1OC` (centres unmarked) [Example 36, 4-chloro-3-[1-(4-tert-butylcarbamoyl-2-methoxybenzenesulphonyl)-5-ethoxy-3-methyl-2-oxo-2,3-dihydro-1H-indol-3-yl]-N-(2-morpholin-4-ylethyl)benzamide] came in with a melting point of 124 °C. Besides, in series [1], the half-inhibitory concentration (IC50) turned out to be 5.2 nM. In addition, at human oxytocin receptors, the IC50 was 350 nM and the “IC50 OXT/IC50 V2” value is 67. Besides, at V1a receptors, the half-maximal inhibitory concentration (IC50) was greater than 1000 nM and the “IC50 V1a/IC50 V2” value is greater than 100. Moreover, at V1b receptors, the IC50 was greater than 1000 nM and the “IC50 V1b/IC50 V2” value is listed as greater than 100.
As to `CCOc1ccc2c(c1)C(C)(c1cc(NC(=O)C3CCN(C)CC3)ccc1Cl)C(=O)N2S(=O)(=O)c1ccc(C(=O)NC(C)(C)C)cc1OC` (centres unmarked) [Example 62, 1-methylpiperidine-4-carboxylic acid {3-[1-(4-tert-butylcarbamoyl-2-methoxy-benzenesulphonyl)-5-ethoxy-3-methyl-2-oxo-2,3-dihydro-1H-indol-3-yl]-4-chlorophenyl}-amide], the melting point is 180 °C. Besides, the IC50 in series [1] came out at 2.5 nM. Besides, on human oxytocin receptors, the IC50 was greater than 1000 nM and the “IC50 OXT/IC50 V2” value is on record as greater than 100. At V1a receptors, the IC50 was 630 nM and the “IC50 V1a/IC50 V2” value is listed as greater than 100. On V1b receptors, the IC50 was greater than 1000 nM and the “IC50 V1b/IC50 V2” value is greater than 100.
Take `CCOc1ccc2c(c1)C(C)(c1ccccc1Cl)C(=O)N2S(=O)(=O)c1ccc(C(=O)NC(C)(C)CO)cc1` (centres unmarked) [Example 72, 4-[3-(2-chlorophenyl)-5-ethoxy-3-methyl-2-oxo-2,3-dihydroindole-1-sulphonyl]-N-(2-hydroxy-1,1-dimethylethyl)benzamide]: the melting point was determined as 152 °C. In series [1], the half-maximal inhibitory concentration (IC50) turned out to be 1.3 nM. At human oxytocin receptors, the half-maximal inhibitory concentration (IC50) was found to be 390 nM and the “IC50 OXT/IC50 V2” value is recorded as greater than 100. In addition, at V1a receptors, the half-inhibitory concentration (IC50) is greater than 1000 nM and the “IC50 V1a/IC50 V2” value is given as greater than 100. Also, at V1b receptors, the IC50 is 940 nM and the “IC50 V1b/IC50 V2” value is greater than 100.
For the compound `COc1cc(C(=O)NC(C)(C)C)ccc1S(=O)(=O)N1C(=O)C(C)(c2ccccc2Cl)c2cc(O)ccc21` (centres unmarked) [Example 144], the melting point turned out to be 166 °C. Besides, the half-inhibitory concentration (IC50) in series [1] came out at 2.6 nM. Moreover, on human oxytocin receptors, the IC50 was 130 nM and the “IC50 OXT/IC50 V2” value is 50. Also, at V1a receptors, inhibition was half-maximal at 310 nM (IC50) and the “IC50 V1a/IC50 V2” value is greater than 100. At V1b receptors, the 50% inhibitory concentration (IC50) is greater than 1000 nM and the “IC50 V1b/IC50 V2” value was greater than 100.
